Results from patent publication US10028948B2, “Chromone derivative as a dopamine D3 receptor antagonist for its use for the treatment of autism spectrum disorder” (PIERRE FABRE MEDICAMENT, priority 2013, dated 2018).
Counter-ions that a name gives are not always drawn.

What was measured:
[1] = biological target: T1, human recombinant dopamine D3 receptor (Homo sapiens, UniProt P35462); test: Inhibition of [3H]spiperone binding, human recombinant dopamine D3 receptor; conditions: cells expressing human recombinant D3 receptor, read-out: inhibition constant (Ki), dopamine D3 receptor
T1 construct: expressed in transfected cells
T1 sequence (P35462 whole entry): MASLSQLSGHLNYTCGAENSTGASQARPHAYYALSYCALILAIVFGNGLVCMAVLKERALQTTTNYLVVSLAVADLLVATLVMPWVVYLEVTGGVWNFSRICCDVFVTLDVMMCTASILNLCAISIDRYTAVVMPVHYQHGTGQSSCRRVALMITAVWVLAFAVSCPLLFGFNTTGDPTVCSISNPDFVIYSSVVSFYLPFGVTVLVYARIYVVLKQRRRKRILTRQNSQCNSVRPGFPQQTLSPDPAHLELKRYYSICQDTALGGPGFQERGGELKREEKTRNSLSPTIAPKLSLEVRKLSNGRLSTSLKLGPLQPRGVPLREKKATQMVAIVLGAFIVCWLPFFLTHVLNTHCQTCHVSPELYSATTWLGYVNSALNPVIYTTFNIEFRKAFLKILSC
Description: (§1) The N-(3-{4-[4-(8-oxo-8H-[1,3]dioxolo[4,5-g]chromen-7-yl)-butyl]-piperazin-1-yl}-phenyl)-methanesulfonamide hydrochloride was evaluated in vitro as a dopamine D3 receptor ligand and modulator of the activity of that receptor in accordance with the invention in cells expressing human recombinant dopamine D3 receptor or human recombinant dopamine D2 receptor. The inhibition constant (Ki) was measured by inhibition of the binding of [^3H] spiperone as described by Cussac et al., in Naunyn-Schmiedeberg's Arch. Pharmacol. 2000, vol 361, p 569-572.

[2] = biological target: T2, human recombinant dopamine D2 receptor (Homo sapiens, UniProt P14416); test: Inhibition of [3H]spiperone binding, human recombinant dopamine D2 receptor; conditions: human recombinant D2 vs D3 receptor
T2 construct: expressed in transfected cells
T2 sequence (P14416 whole entry): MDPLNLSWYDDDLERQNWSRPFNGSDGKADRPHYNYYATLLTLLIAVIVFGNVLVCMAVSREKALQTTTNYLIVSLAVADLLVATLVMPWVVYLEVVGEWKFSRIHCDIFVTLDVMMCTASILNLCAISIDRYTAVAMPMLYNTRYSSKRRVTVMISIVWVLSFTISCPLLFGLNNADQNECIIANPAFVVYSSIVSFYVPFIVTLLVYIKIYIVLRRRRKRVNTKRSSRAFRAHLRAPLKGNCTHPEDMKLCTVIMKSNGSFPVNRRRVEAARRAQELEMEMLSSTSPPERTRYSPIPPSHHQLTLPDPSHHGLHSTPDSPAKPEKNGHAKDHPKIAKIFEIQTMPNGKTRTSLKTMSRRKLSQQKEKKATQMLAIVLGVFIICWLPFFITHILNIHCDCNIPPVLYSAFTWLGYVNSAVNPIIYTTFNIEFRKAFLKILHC
Description: as §1

[3] = tested on: social interaction behavior of offspring of sodium valproate- or saline-treated female rats; test: Social interaction in the valproic acid rat model of autism; assay type: in vivo, Sprague-Dawley rats; conditions: acute administration, scored 10 min, n=10
Description: The N-(3-{4-[4-(8-oxo-8H-[1,3]dioxolo[4,5-g]chromen-7-yl)-butyl]-piperazin-1-yl}-phenyl)-methanesulfonamide hydrochloride was tested on social interaction of offspring of female rats which had been administered valproic acid as a sodium salt. The experimental settings of the valproic acid rat model of autism were adapted from published data (Dendrinos et al., Front. Integr. Neurosci. 2011, vol 5, art 68; Markram et al., Neuropsychopharm. 2007, vol 33, p 901-912; Schneider et al., Neuropsychopharm. 2005, vol 30, p 80-89).
Pregnant (embryonic day 8 max) female Sprague-Dawley rats [OFA (SD) Charles River Lyon, France] were quarantined for 4 days. Animals were group housed (2 per cage) in a full bottom cage (ML-H Cage, 370×235×180 mm, L×W×H; floor surface 870 cm^2) in an environmentally controlled room (temperature 21±1° C.; relative humidity 55±5%) under a 12-h light/dark cycle (lights on at 07:00 AM) with food (A04, Safe, Augy, France) and filtered water (0.2 μm pore diameter) freely available. Until weaning of offspring, animals were changed only once per week in order to disturb them as little as possible. Environmental enrichment (nesting material) was provided.
On embryonic days 12 and 13 (E12-E13), females were weighed and received three intraperitoneal injections of 2.4 ml/kg of sodium valproate (NaVPA, 200 mg/kg). Sodium valproate was dissolved in 0.9% saline for a concentration of 83.3 mg/ml, pH 7.3. Control dams received three intraperitoneal injections of saline (2.4 ml/kg). After the third injection, females were individually housed in ML-H type cages and allowed to raise their litters. Offspring were weaned between 21 to 23 days postnatally.
One sodium valproate- or saline-exposed rat and an unfamiliar naïve rat were placed in opposite corners of an arena (black arena 70 cm×70 cm×30 cm, L×I×H). Individual behavior related to social interaction such as following grooming, sniffing or biting the other rat as well as climbing over the other rat, initiated by the tested rat toward the unfamiliar rat were scored for a period of 10 min. […]

CS(=O)(=O)Nc1cccc(N2CCN(CCCCc3coc4cc5c(cc4c3=O)OCO5)CC2)c1 [compound according to the invention, N-(3-{4-[4-(8-oxo-8H-[1,3]dioxolo[4,5-g]chromen-7-yl)-butyl]-piperazin-1-yl}-phenyl)-methanesulfonamide hydrochloride]
Ki [1]: 0.17 nM | affinity for dopamine D2 receptor relative to D3 (times weaker) [2]: 71 times | effect on social interaction deficits induced by prenatal exposure to sodium valproate ([3]; 0.63 mg/kg): significantly reduced | effect on social interaction deficits induced by prenatal exposure to sodium valproate ([3]; 2.5 mg/kg): completely reversed | effect on social interaction behavior ([3]; offspring of saline-treated mothers): no significant effects
